In US20210236523A1, “P[…] FOR HEADACHE DISORDERS” (priority 2020, published 2021):

Key:
[1] = tested on: patients with cluster headache; experiment: Cluster headache study: tolerability and adverse events; type: in vivo, human
Method: Sessions were conducted in the Neurobiological Studies Unit (NSU) at VACHS. Subjects reported to the NSU at 08:00; urine drug, urine pregnancy (when applicable), and alcohol breathalyzer tests were required to be negative in order to proceed. After a standard light breakfast, an intravenous line was placed and baseline measures were collected. Subjects typically received the drug capsule between 08:30 and 09:30. Blood pressure, heart rate, and peripheral oxygenation were measured at baseline and throughout experimental sessions. Drug effects (overall, anxiety/fear, sleepiness/sedation, nausea, joy/intense happiness, peace/harmony) were self-reported on a 0-3 scale (0=none, 1=minimal, 2=moderate, 3=definite) at baseline and throughout experimental sessions. Psychedelic effects were self-reported at the end of experimental sessions using the validated 5-Dimensional Altered States of Consciousness (5D-ASC) scale. Subjects were discharged from the NSU at 6 hours after capsule ingestion or once physiological and psychological drug effects had resolved. Subjects were not allowed to drive themselves after experimental sessions. Emergency contacts, including 24-hour/7-day psychiatry services, were provided to all subjects.
Telephone follow-up was performed the day after each experimental session and weekly for two weeks and at 2, 3, and 6 months after the last experimental session.

[2] = tested on: patients with cluster headache; experiment: Randomized placebo-controlled study of a 3-dose psilocybin pulse regimen in cluster headache: headache diary; type: in vivo, human; details: for effect size for change in weekly cluster attacks: psilocybin vs placebo; for change in the number of weekly cluster attacks / number of weekly cluster attacks: 3-dose pulse 0.143 mg/kg
Description: In this exploratory study, a patient-informed regimen (a low dose of psilocybin (between 1-2 grams dried P. cubensis taken three times, approximately 5 days apart each)) was studied in patients with cluster headache in a controlled, laboratory setting. The information gained from this study serves to (1) verify longstanding anecdotal reports and (2) design larger, more definitive studies examining the safety and efficacy of psilocybin in cluster headache.
This study was registered on clinicaltrials.gov (NCT02981173) with approvals from the Human Studies Subcommittee of Veterans Affairs Connecticut Healthcare System (VACHS) and the Human Investigations Committee of Yale University School of Medicine. The study was conducted under an approved Investigational New Drug application (#124,874) with the US Food & Drug Administration, under a Schedule 1 license (author DCD). Psilocybin was provided by author NC from the University of Wisconsin. Weight-based capsules of psilocybin 0.143 mg/kg and matching placebo (microcrystalline cellulose; obtained from Fagron (St. Paul, Minn.)) were compounded into identical blue gel capsules by the VACHS Investigational Research Pharmacy for each subject.
Adults (age 21 to 65 years, inclusive) with cluster headache as defined by the International Classification of Headache Disorders III-beta 8 were eligible to participate in this study. Both chronic and episodic cluster headache subtypes were eligible, however certain conditions were required to ensure proper interpretation of the study intervention. For both chronic and episodic subjects, an attack frequency of approximately 1 attack per day or more was required. For episodic subjects, the typical cluster period was required to last approximately 2 months or more and study participation could only take place when at least 6 weeks of the period was anticipated to remain. Excluded medical conditions included, but were not limited to, uncontrolled hypertension, coronary artery disease, cardiac arrhythmia, cerebrovascular disease, and serious central or peripheral nervous system or spinal disease. Excluded psychiatric conditions included, but were not limited to, psychotic or manic disorders in the subject or a first degree relative and substance abuse within the past 3 months. Any prior serious adverse event with psilocybin, LSD, or related compounds (i.e., mescaline) was also exclusionary. Prior exposure to psilocybin or related compounds through recreational or medicinal use or through participation in other research studies was not excluded, although any use in the past 3 months was prohibited. Alcohol use within one week of the first experimental test day was prohibited. Caffeine and nicotine were not restricted. Subjects were required to be off serotonergic antidepressants (selective serotonin reuptake inhibitors, serotonin and norepinephrine reuptake inhibitors, monoamine oxidase inhibitors, tricyclics) for at least 6 weeks and serotonergic antiemetics (i.e., ondansetron) for at least 2 weeks from the first test day. Vasoconstrictive medications (i.e., sumatriptan, pseudoephedrine) could be used during the study period, but not within 5 half-lives of said medication and not within 5 half-lives of psilocybin (15 hours) after each test day. Triptans were also not allowed more than twice weekly.
Subjects were instructed to maintain a headache diary starting 2 weeks before until 8 weeks after the first experimental session. Subjects documented every cluster attack, including date, onset, offset, pain intensity (0-10 visual analog scale (VAS): 0=none, 1=minimal, 5=moderate, 9=severe, 10=worst imaginable). The abortive treatments taken and their effects were also recorded in the diary. Only the 14 days prior to the first experimental session (baseline) and the 56 days after the first experimental session (inclusive) were counted in the final analysis. […]

## CN(C)CCc1c[nH]c2cccc(OP(=O)(O)O)c12 [psilocybin, 3-(2-dimethylaminoethyl)-1H-indol-4-yl] dihydrogen phosphate]
[1]; cluster headache study, 3-dose pulse 0.143 mg/kg
  serious or unexpected adverse events: no serious or unexpected adverse events
[1]; follow-up in the 6 months after study participation
  lasting physical or psychological changes: no lasting physical or psychological changes
[1]; self-limiting
  most commonly reported adverse events during acute exposure: nausea and anxiety
[2]; chronic cluster headache subjects, 8 weeks
  effect size for change in weekly cluster attacks: −1.20
[2]; chronic cluster headache subjects, across 8 weeks, P=0.080 vs placebo
  change in the number of weekly cluster attacks: −6.08 (2.29)
[2]; chronic cluster headache subjects, across 8 weeks, group baseline 8.67 (2.42)
  number of weekly cluster attacks: 4.58 (0.77)
[2]; over the first 3 weeks, episodic and chronic combined, P=0.017 vs placebo
  change in the number of weekly cluster attacks: −6.03 (2.23)
[2]; over the first 3 weeks, episodic and chronic patients combined, group baseline 9.30 (1.49)
  number of weekly cluster attacks: 3.50 (1.12)
[2]; three weeks
  effect size for change in weekly cluster attacks: −1.89
